Results: ChEMBL document CHEMBL1201862, “PubChem BioAssay data set” (2004)
“And” between values parts separate entries of the source, which are not always exact repeats. Equal values may be shown once.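 1) Cells in 96-well plates. 2) Compound, 48 h, 5 concentrations. 3) Linear interpolation between surrounding doses. 4) Unreached endpoint = highest concentration. GI50: concentration for 50% inhibition of growth.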 The source made the active and inactive calls. Cut-off read from the data, not from the text of the source: active = GI50 up to about 1.1 µM and inactive = higher.

Key:
Assay in all cases: NCI tumour cell line growth inhibition, 48 h
SK-MEL-28 = system: SK-MEL-28
786-0 = system: 786-0
CAKI-1 = system: CAKI-1
M14 = system: M14
IGROV-1 = system: IGROV-1
HCT-116 = system: HCT-116
TK-10 = system: TK-10
CCRF-CEM = system: CCRF-CEM
MCF7 = system: MCF7
OVCAR-3 = system: OVCAR-3
SK-OV-3 = system: SK-OV-3
HT-29 = system: HT-29
SNB-19 = system: SNB-19
Hs-578T = system: Hs-578T
A549 = system: A549
MDA-N = system: MDA-N
EKVX = system: EKVX
KM12 = system: KM12
SN12C = system: SN12C
OVCAR-8 = system: OVCAR-8
SF-268 = system: SF-268
SF-539 = system: SF-539
MDA-MB-435 = system: MDA-MB-435
SK-MEL-5 = system: SK-MEL-5
NCI-H23 = system: NCI-H23
BT-549 = system: BT-549
DU-145 = system: DU-145
T47D = system: T47D
UACC-257 = system: UACC-257
NCI-H522 = system: NCI-H522
LOX IMVI = system: LOX IMVI
PC-3 = system: PC-3
HCT-15 = system: HCT-15
NCI/ADR-RES = system: NCI/ADR-RES
A498 = system: A498
NCI-H226 = system: NCI-H226
SR = system: SR
K562 = system: K562
HL-60 = system: HL-60
SNB-75 = system: SNB-75
MOLT-4 = system: MOLT-4
Malme-3M = system: Malme-3M
UACC-62 = system: UACC-62
ACHN = system: ACHN
SF-295 = system: SF-295
HCC 2998 = system: HCC 2998
MDA-MB-231 = system: MDA-MB-231
SK-MEL-2 = system: SK-MEL-2
SW-620 = system: SW-620
UO-31 = system: UO-31
OVCAR-4 = system: OVCAR-4
U-251 = system: U-251
OVCAR-5 = system: OVCAR-5
COLO 205 = system: COLO 205
NCI-H460 = system: NCI-H460
HOP-62 = system: HOP-62

C=CCN1C(=O)/C(=C/c2ccc(Cl)cc2)N=C1SC1OC(COC(C)=O)C(OC(C)=O)C(OC(C)=O)C1OC(C)=O (configuration not stated)
GI50 (SK-MEL-28): 39.4 µM (inactive) and 56.9 µM (inactive) | GI50 (786-0): 3.5 µM (inactive) | GI50 (CAKI-1): 10.9 µM (inactive) and 9.93 µM (inactive) | GI50 (M14): 28.1 µM (inactive) | GI50 (IGROV-1): 22.4 µM (inactive) and 33 µM (inactive) | GI50 (HCT-116): 5.02 µM (inactive) | GI50 (TK-10): 46.2 µM (inactive) and > 42.6 µM (inactive) | GI50 (CCRF-CEM): 37.2 µM (inactive) | GI50 (MCF7): 12.7 µM (inactive) and 7.41 µM (inactive) | GI50 (OVCAR-3): 11.6 µM (inactive) and 18.5 µM (inactive) | GI50 (SK-OV-3): > 39.8 µM (inactive) and 27.1 µM (inactive) | GI50 (HT-29): 35.6 µM (inactive) | GI50 (SNB-19): 15.8 µM (inactive) | GI50 (Hs-578T): 2.54 µM (inactive) | GI50 (A549): 14.4 µM (inactive) | GI50 (MDA-N): 25.8 µM (inactive) | GI50 (EKVX): 24.3 µM (inactive) and 33.4 µM (inactive) | GI50 (KM12): 30.2 µM (inactive) and 22.8 µM (inactive) | GI50 (SN12C): 16.5 µM (inactive) | GI50 (OVCAR-8): 15.7 µM (inactive) and 8.43 µM (inactive) | GI50 (SF-268): 1.64 µM (inactive) | GI50 (SF-539): 33 µM (inactive) and 25.3 µM (inactive) | GI50 (MDA-MB-435): 14 µM (inactive) and 13.8 µM (inactive) | GI50 (SK-MEL-5): 26.6 µM (inactive) and 15.8 µM (inactive) | GI50 (NCI-H23): 20 µM (inactive) and 25.1 µM (inactive) | GI50 (BT-549): 31.3 µM (inactive) and 15.7 µM (inactive) | GI50 (DU-145): 24 µM (inactive) and 14.6 µM (inactive) | GI50 (T47D): 8.51 µM (inactive) | GI50 (UACC-257): 18.9 µM (inactive) and 12.2 µM (inactive) | GI50 (NCI-H522): 2.98 µM (inactive) and 3.81 µM (inactive) | GI50 (LOX IMVI): 22.9 µM (inactive) and 29.9 µM (inactive)

CCOC(=O)/C(Cl)=C(\C)Nc1nc2c(ccc3ccccc32)s1
GI50 (PC-3): 22.5 µM (inactive) | GI50 (SK-MEL-28): > 100 µM (inactive) | GI50 (HCT-15): 26.1 µM | GI50 (NCI/ADR-RES): > 100 µM (inactive) | GI50 (A498): > 100 µM (inactive) | GI50 (CAKI-1): 87.9 µM (inactive) | GI50 (M14): 33.2 µM (inactive) | GI50 (IGROV-1): > 100 µM (inactive) | GI50 (HCT-116): 25.5 µM (inactive) | GI50 (NCI-H226): 24.5 µM (inactive) | GI50 (TK-10): > 100 µM (inactive) | GI50 (CCRF-CEM): 7.87 µM (inactive) | GI50 (SR): 19.5 µM (inactive) | GI50 (K562): 17.5 µM (inactive) | GI50 (MCF7): 24.5 µM (inactive) | GI50 (OVCAR-3): 46.8 µM (inactive) | GI50 (SK-OV-3): > 100 µM (inactive) | GI50 (HT-29): 45.3 µM (inactive) | GI50 (SNB-19): > 100 µM (inactive) | GI50 (HL-60): 38.1 µM (inactive) | GI50 (SNB-75): 14.6 µM (inactive) | GI50 (MOLT-4): 7.28 µM (inactive) | GI50 (Hs-578T): 35 µM (inactive) | GI50 (Malme-3M): 15.6 µM (inactive) | GI50 (UACC-62): 41.9 µM (inactive) | GI50 (ACHN): > 100 µM (inactive) | GI50 (SF-295): > 100 µM (inactive) | GI50 (MDA-N): 26.3 µM (inactive) | GI50 (HCC 2998): 16.4 µM (inactive) | GI50 (MDA-MB-231): 60.5 µM (inactive) | GI50 (SK-MEL-2): 26.6 µM (inactive) | GI50 (EKVX): 32.6 µM (inactive) | GI50 (KM12): 30.6 µM (inactive) | GI50 (SN12C): 47.6 µM (inactive) | GI50 (OVCAR-8): 60.3 µM (inactive) | GI50 (SW-620): 36.4 µM (inactive) | GI50 (SF-268): 90.2 µM (inactive) | GI50 (UO-31): > 100 µM (inactive) | GI50 (OVCAR-4): 87.7 µM (inactive) | GI50 (U-251): > 100 µM (inactive) | GI50 (SK-MEL-5): 31.2 µM (inactive) | GI50 (NCI-H23): 31.3 µM (inactive) | GI50 (BT-549): 61.7 µM (inactive) | GI50 (DU-145): 20.6 µM (inactive) | GI50 (T47D): 13.6 µM (inactive) | GI50 (UACC-257): 91.8 µM (inactive) | GI50 (OVCAR-5): 81.1 µM (inactive) | GI50 (COLO 205): 47.9 µM (inactive) | GI50 (NCI-H460): 22.5 µM (inactive) | GI50 (NCI-H522): 9.35 µM (inactive) | GI50 (HOP-62): 37.9 µM (inactive)
